The text below walks through data of ChEMBL document CHEMBL4376803, “Recent Advances in the Exploration of Therapeutic Analogues of Gramicidin S, an Old but Still Potent Antimicrobial Peptide” (J Med Chem, 2019).

Data set [1] relates to Staphylococcus aureus. In words: Antibacterial activity against Staphylococcus aureus ATCC 29213 after overnight incubation. The class given is functional.
For the next data set, the system named is Bacillus cereus. Kind of data set: Antibacterial activity against Bacillus cereus ATCC 11778 after overnight incubation. The class given is functional.
In data set [2] the test system is Staphylococcus epidermidis. In words: Antibacterial activity against Staphylococcus epidermidis ATCC 12228 after overnight incubation. The class given is functional.
For data set [3], the system named is Pseudomonas aeruginosa. Kind of data set: Antibacterial activity against Pseudomonas aeruginosa ATCC 27853 after overnight incubation. The class given is functional.
Data set [4] relates to Escherichia coli. In words: Antibacterial activity against Escherichia coli ATCC 25922 after overnight incubation. The class given is functional.
The test system of data set [5] is Enterococcus faecalis. In words: Antibacterial activity against Enterococcus faecalis ATCC 29212 after overnight incubation. The class given is functional.
The test system of the next data set is Erythrocyte. Kind of data set: Haemolytic activity in human RBC after 4 hrs by visual method. The class given is ADME, cell-based.
In data set [6] the test system is Escherichia coli. Kind of data set: Antibacterial activity against Escherichia coli DC2 after overnight incubation by microtiter dilution method. The class given is functional.
Data set [7] relates to Enterococcus faecalis. Kind of data set: Antibacterial activity against Enterococcus faecalis C625 after overnight incubation by microtiter dilution method. The class given is functional.
In data set [8] the test system is Staphylococcus epidermidis. Kind of data set: Antibacterial activity against Staphylococcus epidermidis C621 after 22 hrs by double dilution method. The class given is functional. Conditions: C621, 22 h.
Data set [9] has as its system Pseudomonas aeruginosa. Kind of data set: Antibacterial activity against Pseudomonas aeruginosa H188 after overnight incubation by microtiter dilution method. The class given is functional.
The test system of data set [10] is Staphylococcus aureus. Kind of data set: Antibacterial activity against Staphylococcus aureus K147 after overnight incubation by microtiter dilution method. The class given is functional.

Converted amounts (≈) assume the structure as drawn.

Turning to `CC(C)C[C@@H]1NC(=O)[C@H](CCCN)NC(=O)[C@H](C(C)C)NC(=O)[C@@H]2CCCN2C(=O)[C@@H](Cc2ccccc2)NC(=O)[C@H](CC(C)C)NC(=O)[C@H](CCCN)NC(=O)[C@H](C(C)C)NC(=O)[C@@H]2O[C@H](CNC1=O)[C@@H](OCc1ccc3ccccc3c1)[C@@H]2O`, the minimal inhibitory concentration (MIC) with Staphylococcus aureus [1] is 4 to 8 µg/mL (≈ 3.34 to 6.69 µM); against Bacillus cereus, 4 µg/mL (≈ 3.34 µM); in [2], 2 µg/mL (≈ 1.67 µM); against Pseudomonas aeruginosa [3], over 64 µg/mL; against Escherichia coli [4] it was over 64 µg/mL; against Enterococcus faecalis [5], 8 µg/mL (≈ 6.69 µM).
In the data set on Erythrocyte, `CC(C)C[C@@H]1NC(=O)[C@H](CCCN)NC(=O)[C@H](C(C)C)NC(=O)[C@@H]2CC[C@@H]3CC[C@H](NC(=O)[C@H](CC(C)C)NC(=O)[C@@H](CCCN)NC(=O)[C@H](C(C)C)NC(=O)[C@@H]4CC[C@@H]5CC[C@H](NC1=O)C(=O)N54)C(=O)N32` displayed an HC90 of 400 µg/mL. In addition, the MIC against Escherichia coli [6] came to 25 µg/mL (≈ 24.7 µM); in the data set on Enterococcus faecalis [7], 25 µg/mL (≈ 24.7 µM); in data set [8], 12.5 µg/mL (≈ 12.3 µM); in the data set on Pseudomonas aeruginosa [9], 12.5 µg/mL (≈ 12.3 µM); against Staphylococcus aureus [10], 12.5 µg/mL (≈ 12.3 µM).
